From patent publication US10654834B2 (Venenum Biodesign, LLC, priority 2016, dated 2020)

Tests used:
[1] = biological target: T1, mouse TGR5 receptor (Mus musculus, UniProt Q80SS6); experiment: Mouse TGR5 luminescent cAMP production assay (HEK293-EBNA cells, DiscoveRx cAMP XS+ kit); format: cell-based; settings: HEK293-EBNA cells overexpressing mouse TGR5, luminescent cAMP assay; read-out: Mouse TGR5 Lum. cAMP Activity (EC50)
T1 construct: host or cells: HEK293-EBNA (293 c18, ATCC CRL10852)
T1 sequence (Q80SS6 1-329): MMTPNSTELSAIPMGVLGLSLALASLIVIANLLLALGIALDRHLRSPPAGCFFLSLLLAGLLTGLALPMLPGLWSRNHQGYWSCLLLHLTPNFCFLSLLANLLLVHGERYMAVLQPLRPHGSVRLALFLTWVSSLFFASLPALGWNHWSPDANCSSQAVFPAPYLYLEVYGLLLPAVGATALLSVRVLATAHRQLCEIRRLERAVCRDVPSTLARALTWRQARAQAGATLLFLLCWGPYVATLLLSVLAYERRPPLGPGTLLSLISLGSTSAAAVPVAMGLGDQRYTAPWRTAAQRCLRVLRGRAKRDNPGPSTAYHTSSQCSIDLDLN
How it was run: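 HEK293-EBNA cells stably expressing mouse TGR5, resuspended in serum-free DMEM with 500 μM IBMX, were premixed 20 min with cAMP antibody, then exposed to half-log compound dilutions for 1 h at room temperature. cAMP was read by luminescent enzyme-fragment complementation (cAMP XS+) after overnight incubation; EC50 derived.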

[2] = biological target: T1, mouse TGR5 receptor; experiment: Mouse TGR5 HTRF cAMP production assay (HEK293-EBNA cells, Cisbio cAMP HiRange kit); format: cell-based; settings: HEK293-EBNA cells overexpressing mouse TGR5, HTRF cAMP assay
How it was run: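 HEK293-EBNA cells stably expressing mouse TGR5 (episomal vector) were suspended in serum-free DMEM with 500 μM IBMX and exposed to 12-point half-log compound dilutions for 1 h at room temperature. cAMP was detected by HTRF (d2-cAMP/anti-cAMP cryptate, 1 h, room temperature), giving EC50 from duplicates.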

[3] = biological target: T2, human TGR5 receptor (Homo sapiens, UniProt Q8TDU6); experiment: Human TGR5 cAMP production assay (hTGR5-CHO cells, DiscoveRx cAMP XS+ kit); format: cell-based; settings: luminescent cAMP assay, read-out: Human TGR5 Lum. cAMP Activity (EC50)
T2 construct: host or cells: CHO-K1 (hTGR5-CHO)
T2 sequence (Q8TDU6 1-330): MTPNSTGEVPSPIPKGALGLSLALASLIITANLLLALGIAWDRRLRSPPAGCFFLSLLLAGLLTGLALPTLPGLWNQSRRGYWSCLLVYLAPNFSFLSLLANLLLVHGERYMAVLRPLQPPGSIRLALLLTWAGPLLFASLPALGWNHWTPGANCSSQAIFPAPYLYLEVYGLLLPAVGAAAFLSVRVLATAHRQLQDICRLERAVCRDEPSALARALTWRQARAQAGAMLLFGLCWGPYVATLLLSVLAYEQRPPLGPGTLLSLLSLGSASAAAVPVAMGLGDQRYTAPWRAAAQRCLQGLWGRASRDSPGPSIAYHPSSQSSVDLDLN
How it was run: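 CHO-K1 cells stably expressing hTGR5, in PBS with IBMX and cAMP antibody, treated with half-log compound dilutions for 1 h at room temperature. cAMP measured by enzyme-fragment complementation luminescence after overnight detection; EC50 values reported.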

[4] = Pharmacokinetic profile in mice after oral gavage; format: in vivo, mouse; settings: mouse; fasted male Hilltop mice, 10 mg/kg oral gavage, plasma; read-out: Cmax
How it was run: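 Fasted 8-week male Hilltop mice given 10 mg/kg orally in 20% PEG400/80% 0.5% CMC + 0.25% Tween-80. EDTA plasma sampled 0-4 h, measured by LC-MS/MS (MRM, positive ion); Cmax and AUC derived non-compartmentally, values being means of three mice.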

SMILES | EC50 [1] | EC50 [2] | EC50 [3] | Cmax [4]
N#Cc1ccc(CCNC(=O)[C@@H]2CCCN2c2cc(-c3cc4ccccc4s3)nc(C(F)(F)F)n2)cc1 [Compound 173, (S)-1-(6-(benzo[b]thiophen-2-yl)-2-(trifluoromethyl)pyrimidin-4-yl)-N-(4-cyanophenethyl)pyrrolidine-2-carboxamide] | 100 to 999 nM | 100 to 999 nM | 100 to 999 nM | 
CC(C)(C)OC(=O)NC1CCN(c2cc(N3CCC[C@H]3C(=O)NCCc3ccc(C#N)cc3)nc(C(F)(F)F)n2)CC1 [Compound 16] | < 100 nM |  | 100 to 999 nM | 
O=C(NCCc1ccc(C(F)(F)F)cc1)[C@@H]1CCCN1c1cc(NCc2cccnc2)nc(C(F)(F)F)n1 [Compound 4] | 100 to 999 nM |  | 1000 to 30000 nM | 
N#Cc1ccc(CCNC(=O)[C@@H]2CCCN2c2cc(OC3CCNCC3)nc(C(F)(F)F)n2)cc1 [Compound 51, (S)-N-(4-cyanophenethyl)-1-(6-(piperidin-4-yloxy)-2-(trifluoromethyl)pyrimidin-4-yl)pyrrolidine-2-carboxamide] | 100 to 999 nM |  | 1000 to 30000 nM | 
CC(C)(C)OC(=O)N1CCC(Oc2cc(N3CCC[C@H]3C(=O)NCCc3ccc(C#N)cc3)nc(C(F)(F)F)n2)CC1 [Compound 45, (S)-tert-butyl 4-((6-(2-((4-cyanophenethyl)carbamoyl)pyrrolidin-1-yl)-2-(trifluoromethyl)pyrimidin-4-yl)oxy)piperidine-1-carboxylate] | < 100 nM |  | 100 to 999 nM | 
Cn1ccc2cc(-c3cc(N4CCC[C@H]4C(=O)NCCc4ccc(C#N)cc4)nc(C(F)(F)F)n3)ccc21 [Compound 169, (S)-N-(4-cyanophenethyl)-1-(6-(1-methyl-1H-indol-5-yl)-2-(trifluoromethyl)pyrimidin-4-yl)pyrrolidine-2-carboxamide] | 100 to 999 nM |  | 1000 to 30000 nM | 
O=C(NCCc1ccc(C(F)(F)F)cc1)[C@@H]1CCCN1c1cc(N2CCC(CCO)CC2)nc(C(F)(F)F)n1 [Compound 7] | < 100 nM |  | < 100 nM | 
N#Cc1ccc(CCNC(=O)[C@@H]2CCCN2c2cc(-c3ccc4[nH]ccc4c3)nc(C(F)(F)F)n2)cc1 [Compound 157, (S)-1-(6-(1H-indol-5-yl)-2-(trifluoromethyl)pyrimidin-4-yl)-N-(4-cyanophenethyl)pyrrolidine-2-carboxamide] | < 100 nM |  | 100 to 999 nM | 
O=C(NCCc1ccc(C(F)(F)F)cc1)[C@@H]1CCCN1c1cc(-c2ccccn2)nc(C(F)(F)F)n1 [Compound 163, (S)-1-(6-(pyridin-2-yl)-2-(trifluoromethyl)pyrimidin-4-yl)-N-(4-(trifluoromethyl)phenethyl)-pyrrolidine-2-carboxamide] | 1000 to 30000 nM |  | 100 to 999 nM | 
N#Cc1ccc(CCNC(=O)[C@@H]2CCCN2c2cc(Nc3ccncc3)nc(C(F)(F)F)n2)cc1 [Compound 14] | 1000 to 30000 nM |  | 1000 to 30000 nM | 
O=C(NCCc1ccc(C(F)(F)F)cc1)[C@@H]1CCCN(c2cc(NCCO)nc(C(F)(F)F)n2)C1 [Compound 323, (R)-1-(6-((2-hydroxyethyl)amino)-2-(trifluoromethyl)pyrimidin-4-yl)-N-(4-(trifluoromethyl)phenethyl)piperidine-3-carboxamide] | 100 to 999 nM |  | 100 to 999 nM | 
Cc1csc(-c2cc(N3CCC[C@H]3C(=O)NCCc3ccc(C#N)cc3)nc(C(F)(F)F)n2)c1 [Compound 171, (S)-N-(4-cyanophenethyl)-1-(6-(4-methylthiophen-2-yl)-2-(trifluoromethyl)pyrimidin-4-yl)pyrrolidine-2-carboxamide] | 100 to 999 nM | < 100 nM | 100 to 999 nM | 

Results, then the molecule that gave them:

EC50 [1] | EC50 [2] | EC50 [3] | Cmax [4] | SMILES
100 to 999 nM | 100 to 999 nM | 100 to 999 nM |  | Cc1ccc(-c2cc(N3CCC[C@H]3C(=O)NCCc3ccc(C#N)cc3)nc(C(F)(F)F)n2)s1 [Compound 170, (S)-N-(4-cyanophenethyl)-1-(6-(5-methylthiophen-2-yl)-2-(trifluoromethyl)pyrimidin-4-yl)pyrrolidine-2-carboxamide]
100 to 999 nM |  | 100 to 999 nM | 54 ng/mL | N#Cc1ccc(CCNC(=O)[C@@H]2C[C@@H](O)CN2c2cc(N3CCC(CCO)CC3)nc(C(F)(F)F)n2)cc1 [Compound 210, (2S,4R)—N-(4-cyanophenethyl)-4-hydroxy-1-(6-(4-(2-hydroxyethyl)piperidin-1-yl)-2-(trifluoromethyl)pyrimidin-4-yl)pyrrolidine-2-carboxamide]
100 to 999 nM |  | 100 to 999 nM |  | CN(C)CCN1CCN(c2cc(N3CCC[C@@H](C(=O)NCCc4ccc(C#N)cc4)C3)nc(C(F)(F)F)n2)CC1 [Compound 317, (R)-N-(4-cyanophenethyl)-1-(6-(4-(2-(dimethylamino)ethyl)piperazin-1-yl)-2-(trifluoromethyl)pyrimidin-4-yl)piperidine-3-carboxamide]
100 to 999 nM |  | 100 to 999 nM |  | N#Cc1ccc(CCNC(=O)[C@@H]2CCCN(c3cc(N4CCN(Cc5cccc6c5OCO6)CC4)nc(C(F)(F)F)n3)C2)cc1 [Compound 319, (R)-1-(6-(4-(benzo[d][1,3]dioxol-4-ylmethyl)piperazin-1-yl)-2-(trifluoromethyl)pyrimidin-4-yl)-N-(4-cyanophenethyl)piperidine-3-carboxamide]
< 100 nM |  | < 100 nM |  | N#Cc1ccc(CCNC(=O)C2CCN2c2cc(N3CCC(CO)CC3)nc(C(F)(F)F)n2)cc1 (stereo not drawn) [Compound 241, N-(4-cyanophenethyl)-1-(6-(4-(hydroxymethyl)piperidin-1-yl)-2-(trifluoromethyl)pyrimidin-4-yl)azetidine-2-carboxamide]
100 to 999 nM |  | 100 to 999 nM |  | Cc1ccc(-c2cc(N3CCC[C@H]3C(=O)NCCc3ccc(C#N)cc3)nc(C(F)(F)F)n2)o1 [Compound 166, (S)-N-(4-cyanophenethyl)-1-(6-(5-methylfuran-2-yl)-2-(trifluoromethyl)pyrimidin-4-yl)pyrrolidine-2-carboxamide]
100 to 999 nM |  | 100 to 999 nM |  | CC(C)(C)OC(=O)NCC1CCN(c2cc(N3CCC[C@H]3C(=O)NCCc3ccc(C#N)cc3)nc(C(F)(F)F)n2)CC1 [Compound 17]
100 to 999 nM |  | 100 to 999 nM |  | CC(C)(C)OC(=O)NCCC1CCN(c2cc(N3CCC[C@H]3C(=O)NCCc3ccc(C#N)cc3)nc(C(F)(F)F)n2)CC1 [Compound 18]
100 to 999 nM |  | 1000 to 30000 nM |  | N#Cc1ccc(CCNC(=O)[C@@H]2CCCN2c2cc(-c3ccc(CN4CCOCC4)s3)nc(C(F)(F)F)n2)cc1 [Compound 168, (S)-N-(4-cyanophenethyl)-1-(6-(5-(morpholinomethyl)thiophen-2-yl)-2-(trifluoromethyl)pyrimidin-4-yl)pyrrolidine-2-carboxamide]
100 to 999 nM |  | 1000 to 30000 nM |  | O=C(NCCc1ccc(C(F)(F)F)cc1)[C@@H]1CCCN(c2cc(N3CCNCC3)nc(C(F)(F)F)n2)C1 [Compound 327, (R)-1-(6-(piperazin-1-yl)-2-(trifluoromethyl)pyrimidin-4-yl)-N-(4-(trifluoromethyl)phenethyl)piperidine-3-carboxamide]
